# Values quoted from earlier work, collected in patent US20080221033A1, “Monitoring of Cardiac Natriuretic Peptides During Diagnosis, Management, and Treatment of Cardiac Diseases” (Koninklijke Philips Electronics N. V., priority 2005, published 2008).
# Like-named read-outs stand apart in the source and are kept apart here.
# Assays:
# [1] = tested on: patients hospitalized with congestive heart failure
# [2] = patients hospitalized with congestive heart failure
molecule,measurement,setting,value
brain natriuretic peptide [BNP],terminal half-life in the bloodstream (in words),in vivo,a few minutes to a few hours
nesiritide,effectiveness versus parenteral vasodilators and inotropic agents,"[1]; decompensated heart failure, vs nitroprusside, nitroglycerin, dobutamine, milrinone",more effective
same,onset of action,"[1]; human, in vivo",15 min
same,tolerability versus parenteral vasodilators and inotropic agents,"[1]; human, in vivo",better tolerated
same,pulmonary arterial pressure,[1]; [2],reduces
same,pulmonary capillary wedge pressure,[1]; [2],reduces
same,right atrial pressure,[1]; [2],reduces
same,systemic vascular resistance,[1]; [2],reduces
same,onset of therapeutic action,[1]; typical cardiac patients,about 15 minutes
"N-terminal pro-BNP (protein, UniProt P16860 27-102, looked up, NT-proBNP) NT-proBNP: HPLGSPGSASDLETSGLQEQRNHLQGKLSELQVEQTSLEPLQESPRPTGVWKSREVATEGIRGHRKMVLYTLRAPR",terminal half-life in the bloodstream (in words),"bloodstream, 'believed to be'",about a month or longer
